As usually defined, the LD50 is the dose at which mortality reaches 50%. One may read the solubility as how much of the substance goes into solution per volume. The low end stands for a poorly soluble substance, the high end for a readily soluble substance. Broadly, the IC50 is the midpoint of a concentration-inhibition curve. A higher IC50 goes with a need for much substance.

The text below walks through data of US9138421B2, “Platinum compounds for treating cell proliferative diseases, preparation method and use thereof” (priority 2011, dated 2015).

The nature of series [1]: Acute toxic effect of platinum complex on normal mice (LD50). Type of series: in vivo, Kunming mice. Conditions: both sexes, Kunming, mouse, in vivo; single intravenous administration in 5% glucose, 14 days observation, Bliss method. The procedure:
(§1) Test 1: Acute Toxic Effect of Platinum Complex on Normal Mice
(§2) Embodiment platinum compound was dissolved with 5% glucose solution. […] Mortality and toxicity were observed after administration.

The nature of series [2]: Solubility in water.
Series [3] deals with lung cancer H292. The series can be described thus: MTT cytotoxicity, lung cancer H292. Type of series: cell-based. Conditions: n = 6. As for the experimental part: (§3) The toxic action of Embodiment platinum containing compounds was observed on tumor cells by MTT colorimetric method. Several kinds of tumor cells in exponential growth phase were prepared into single cell suspension, inoculated on 96 pore plat at the density of 4×10^4/hole, cultivated for 24 hours to enable to adhere to wall with 1640 culture medium containing 10% fetal calf serum (complete medium) at 37° C.; the final culture volume was 100 μl. Cell morphology was observed after culture for 24 hours.

For series [4], the system named is colon cancer SW480. The series can be described thus: MTT cytotoxicity, colon cancer SW480. Type of series: cell-based. The note with it: n = 6. As for the experimental part: as §3
The test system of series [5] is normal mice. Description: Acute toxic effect of platinum complex on normal mice (LD50). Type of series: in vivo, Kunming mice. The note with it: single intravenous administration in 5% glucose, 14 days observation, Bliss method. The procedure:
as §1, §2

Series [6] relates to Pulmonary epithelial cell BEAS-2B. The series can be described thus: MTT cytotoxicity, pulmonary epithelial cell BEAS-2B. Type of series: cell-based. Conditions: n = 6. The procedure:
as §3

Series [7] has as its system lung cancer H292 cell line. Description: In vivo antitumor activity, lung cancer H292 in nude mice. The note with it: H292, 15 mg/kg, every 2 days, 4 times, end 30 days after inoculation.
The test system of series [8] is lung cancer Lewis. Description: MTT cytotoxicity, lung cancer Lewis. Type of series: cell-based. Conditions: n = 6. The procedure:
as §3

The test system of series [9] is gastric cancer MGC803. The series can be described thus: MTT cytotoxicity, gastric cancer MGC803. Type of series: cell-based. Conditions: n = 6. As for the experimental part: as §3
Series [10] has as its system testis cell ST. The series can be described thus: MTT cytotoxicity, testis cell ST. Type of series: cell-based. The note with it: n = 6. The procedure: as §3
Series [11] relates to breast cancer MCF-7 tumor cell line. Description: In vivo antitumor activity, breast cancer MCF-7 in nude mice. Conditions: MCF-7, 15 mg/kg, every 2 days, 4 times, end 30 days after inoculation.
For series [12], the system named is esophagus cancer ECA109. The series can be described thus: MTT cytotoxicity, esophagus cancer ECA109. Type of series: cell-based. The note with it: n = 6. As for the experimental part:
as §3

As for `CNCCC1C(=O)[O][Pt]([NH2])([NH2])[O]C1=O` [compound 1, [2-(2-methylamine ethyl)-malonato].[cis-diamino]platinum (II) phosphate], the LD50 at 14 days in series [1] was 722 µmol/kg. In addition, the solubility in [2] (water) came to 221 mg/mL.

Consider `CN(C)CCC1C(=O)[O][Pt]([NH2])([NH2])[O]C1=O` [compound 2, [2-(2-dimethylamine ethyl)-malonato].[cis-diamine] platinum (II) acetate], for which the LD50 at 14 days in series [1] was 791 µmol/kg. In series [2] (water), this compound showed a solubility of 198 mg/mL.

`CN(C)CCCC1C(=O)[O][Pt]([NH2])([NH2])[O]C1=O` [compound 3, [2-(3-dimethylamine propyl)-malonato].[cis-diamine] platinum (II) phosphate] showed an LD50 at 14 days in [1] of 824 µmol/kg. This compound also registered a solubility in series [2] (water) of 164 mg/mL.

Consider `NCCCC1C(=O)[O][Pt]([NH2])([NH2])[O]C1=O` [compound 4, [2-(3-amino propyl)-malonato].[cis-diamine] platinum (II) phosphate], for which, in [1], the LD50 at 14 days came out at 802 µmol/kg. In series [2] (water), this compound yielded a solubility of 176 mg/mL.

In [1], `CCN(CC)CCC1C(=O)[O][Pt]([NH2])([NH2])[O]C1=O` [compound 5, [2-(2-diethylamine ethyl)-malonato].[cis-diamine] platinum (II) phosphate] returned an LD50 at 14 days of 853 µmol/kg. The same compound showed a solubility in [2] (water) of 187 mg/mL.

`CCN(CC)CCCC1C(=O)[O][Pt]([NH2])([NH2])[O]C1=O` [compound 6, 2-(3-diethylaminepropyl)-malonic-cis-diamino platinum (II) phosphate] yielded an LD50 at 14 days in series [1] of 749 µmol/kg. Besides, the solubility in [2] (water) stood at 165 mg/mL.

With `CN(C)CCC1C(=O)[O][Pt]2([NH]C3CCCCC3[NH]2)[O]C1=O` (stereo not drawn) [compound 10, [2-(2-dimethylamino ethyl)-malonato].[cis-(1,2-trans-cyclohexanediamine)] platinum (II)], the IC50 in series [3] was 54 µM; in [4], 94 µM; in series [6] it was 220 µM; in [8] it was 143 µM. In addition, the LD50 value in [5] turned out to be 0.593 mmol/kg. In addition, the “tumor inhibition rate (%)” value in [7] was 55.3 ± 11.21 ^ %.

For `CCN(CC)CCC1C(=O)[O][Pt]2([NH]C3CCCCC3[NH]2)[O]C1=O.O=C(O)CC(O)(CC(=O)O)C(=O)O` (stereo not drawn) [compound 13, [2-(2-diethylamine ethyl)-malonato].[cis-(1,2-trans-cyclohexamethylenediamine)]platinum (II) citrate], the IC50 was 316 µM in series [3], 80 µM in [4], 145 µM in [6] and 36 µM in [8]. Also, the “tumor inhibition rate (%)” value in [7] is given as 56.1 ± 9.81 ^ %.

For `CCN(CC)CCCC1C(=O)[O][Pt]2([NH]C3CCCCC3[NH]2)[O]C1=O.O=P(O)(O)O` (stereo not drawn) [compound 14, [2-(3-diethylamine propyl)-malonato].[cis-(1,2-trans-cyclohexamethylenediamine)]platinum (II) phosphate], the IC50 in series [3] was 161 µM; in series [4] it was 78 µM; in series [9], 213 µM; in series [10], 251 µM. Further, the LD50 value in series [5] was 0.902 mmol/kg. Besides, the “tumor inhibition rate (%)” value in series [7] came out at 39.8 ± 8.51 %.

Turning to `CCCN(CCC)CCC1C(=O)[O][Pt]2([NH]C3CCCCC3[NH]2)[O]C1=O.O=P(O)(O)O` (stereo not drawn) [compound 15, [2-(2-di-n-propylamine ethyl)-malonato].[cis-(1,2-trans-cyclohexamethylenediamine)]platinum (II) phosphate], the IC50 in series [3] came to 651 µM; in series [4] it was 92 µM; in [9], 149 µM; in series [10], 12 µM. This compound also returned an LD50 value in [5] of 0.469 mmol/kg. In addition, in series [7], the “tumor inhibition rate (%)” value is on record as 59.0 ± 11.02 ^ %.

As for `CCN(CC)CCCC1C(=O)[O][Pt]2([NH]C3CCC3[NH]2)[O]C1=O.O=C(O)CCC(=O)O` (stereo not drawn) [compound 18, 2-(3-diethylaminepropyl)-malonic.cis-(1,2-trans-aminocyclobutyl) platinum (II) succinate], the IC50 in series [3] worked out at 224 µM; in [4] it was 281 µM; in series [9] it was 367 µM; in series [10] it was 147 µM. For the same compound, in [11], the “tumor inhibition rate (%)” value turned out to be 45.0 ± 9.87%.

Turning to `CCN(CC)CCCC1C(=O)[O][Pt]2([NH]C3CC3[NH]2)[O]C1=O.O=P(O)(O)O` (stereo not drawn) [compound 19, [2-(3-diethylamine propyl)-malonato].[cis-(1,2-trans-cyclopropyldiamine)]platinum (II) phosphate], the IC50 in [3] is 62 µM; in [9], 213 µM; in series [10], 251 µM; in [12] it was 88 µM. The LD50 value in [5] amounted to 0.802 mmol/kg. The solubility in [2] (in water) turned out to be 218 mg/mL. Further, the “tumor inhibition rate (%)” value in series [11] came out at 52.6 ± 10.5 %.

Take `CCN(CC)CCC1C(=O)[O][Pt]2([NH]CCC[NH]2)[O]C1=O.O=P(O)(O)O` [compound 21, [2-(2-diethylamine ethyl)-malonato].[cis-1,3-propyldiamine] platinum (II) phosphate]: the IC50 in [3] is 205 µM; in series [9], 216 µM; in series [10] it was 16 µM; in [12], 174 µM. The same compound had an LD50 value in series [5] of 0.716 mmol/kg. Moreover, the solubility in series [2] (in water) stood at 231 mg/mL. Moreover, the “tumor inhibition rate (%)” value in [11] came out at 40.3 ± 9.65%.

`[NH2][Pt]1([NH2])[O]C(=O)C(CCCN2CCCCC2)C(=O)[O]1` [compound 29, [2-(3-(1-piperidyl)-propyl)-malonato].[cis-diamine]platinum (II) phosphate] displayed an LD50 at 14 days in [1] of 784 µmol/kg. This compound also displayed a solubility in [2] (water) of 159 mg/mL.

With `[NH2][Pt]1([NH2])[O]C(=O)C(CCCN2CCCC2)C(=O)[O]1` [compound 30, [2-(3-(1-pyrrolidyl)-propyl)-malonato].[cis-diamine] platinum (II) phosphate], in [1], the LD50 at 14 days is 802 µmol/kg. Besides, in series [2] (water), the solubility came out at 160 mg/mL.

“[2-(2-di-n-propylamine ethyl)-malonato].[cis-1,4-butanediamine] platinum (II) phosphate [compound 22]”: the IC50 in series [3] turned out to be 102 µM; in series [9] it was 556 µM; in [10], 302 µM; in series [12] it was 215 µM. The same compound returned an LD50 value in series [5] of 0.882 mmol/kg. In addition, the “tumor inhibition rate (%)” value in [11] is 40.9 ± 8.97%.

For “[2-(2-diethylamine ethyl)-malonato].[cis-1,2-(1,2-dihydroxymethyl)-ethyldiamine]platinum (II) phosphate [compound 23]”, the IC50 in series [3] was 84 µM; in [9] it was 367 µM; in [10], 147 µM; in [12] it was 212 µM. Further, the LD50 value in series [5] came out at 0.702 mmol/kg. Further, the “tumor inhibition rate (%)” value in [11] worked out at 44.1 ± 15.12%.

Take “[2-(2-dimethylamine ethyl)-malonato].[cis-1,2-ethylenediamine] platinum (II) tosilate [compound 20]”: the IC50 in series [3] stood at 351 µM; in series [9], 149 µM; in [10], 12 µM; in series [12], 193 µM. In addition, the LD50 value in series [5] is on record as 0.753 mmol/kg. Further, the “tumor inhibition rate (%)” value in series [11] came to 54.52 ± 10.25 %.

In the case of “[2-(2-dimethylamine ethyl)-malonato].[cis-1,3-(2,2-hydroxymethyl)-propane diamine]platinum (II) phosphate [compound 24]”, the IC50 came to 65 µM in [3], 217 µM in series [9], 153 µM in series [10] and 125 µM in series [12]. For the same compound, the LD50 value in [5] came out at 0.509 mmol/kg. In addition, in [11], the “tumor inhibition rate (%)” value was 44.8 ± 11.31%.

“[2-(3-di-n-propylamine propyl)-malonato].[cis-(1, 2-trans-cyclohexamethylene diamine)]platinum (II) phosphate [compound 16]”: the IC50 in series [3] came to 402 µM; in series [4] it was 77 µM; in series [9], 216 µM; in series [10], 16 µM. The compound also had an LD50 value in series [5] of 0.524 mmol/kg. In series [7], the “tumor inhibition rate (%)” value came out at 35.2 ± 6.43 %.

In the case of “[2-(3-diethylamine propyl)-malonato].[cis-(1,2-trans-diaminocyclopentane)]platinum (II) phosphate [compound 17]”, the IC50 in [3] came to 249 µM; in series [4] it was 205 µM; in series [9], 556 µM; in series [10], 302 µM. In series [5], the LD50 value worked out at 0.616 mmol/kg. In addition, the “tumor inhibition rate (%)” value in series [11] turned out to be 39.8 ± 12.12%.

In the case of “[2-(3-dimethylamine propyl)-malonato].[cis-(1,2-trans-cyclohexamethylene diamine)]platinum (II) phosphate [compound 11]”, the IC50 in series [3] worked out at 6 µM; in series [4], 57 µM; in [6] it was 168 µM; in [8], 213 µM. Also, in [5], the LD50 value was determined as 0.509 mmol/kg. The “tumor inhibition rate (%)” value in [7] stood at 35.9 ± 7.13 %.
